Measurements published in US20230414605A1, “Method of Treating Cancer Using FABP5 Inhibitors” (Aurigene Oncology Limited, priority 2020, published 2023).

How the values were obtained:
Assay type in all cases: cell-based
OCI-LY3 cells = assay: Anti proliferative activity in haematological cancer cell lines (CellTiter Glo), OCI-LY3
Procedure: (§1) After 24 hours, selected compound of the present invention was added to cells from 10 mM stocks made in DMSO (Sigma Cat no. D2650). CTG reading was taken on the day of compound addition which was labelled as Day 0 reading. Each concentration of compound was tested in triplicate with DMSO concentration not exceeding a final percentage of 0.1 in the cells. After 3 days (72 hours) of incubation assay terminated using 100 μl of CellTiter Glo® reagent (Promega, Cat. no G7572). CellTiter Glo® Luminescent reagent determines the number of viable cells based on quantitation of ATP present which is an indicator of cell number and metabolically activity. Luminescence readings were taken in Victor-3 instrument. The data was analysed using graph pad prism software. Positive control (100% survival)=Cells in complete media with […]; Negative control/blank (0% survival)=Media alone containing 0.1% DMSO.

DOHH-2 = assay: Anti proliferative activity in haematological cancer cell lines (CellTiter Glo), DOHH-2; conditions: Homo sapiens, DOHH-2, Follicular lymphoma, 72 hours incubation
Procedure: as §1

OCI-LY10 = assay: Anti proliferative activity in haematological cancer cell lines (CellTiter Glo), OCI-LY10; conditions: Homo sapiens, OCI-LY10, ABC-DLBCL, 72 hours incubation
Procedure: as §1

CCRF-CEM = assay: Anti proliferative activity in haematological cancer cell lines (CellTiter Glo), CCRF-CEM
Procedure: as §1

CUTLL-1 = assay: Anti proliferative activity in haematological cancer cell lines (CellTiter Glo), CUTLL-1
Procedure: as §1

Pfeiffer = assay: Anti proliferative activity in haematological cancer cell lines (CellTiter Glo), Pfeiffer; conditions: Homo sapiens, GCB-DLBCL, 72 hours incubation
Procedure: as §1

H929 = assay: Anti proliferative activity in haematological cancer cell lines (CellTiter Glo), H929
Procedure: as §1

HBL-1 = assay: Anti proliferative activity in haematological cancer cell lines (CellTiter Glo), HBL-1; conditions: HBL1, HBL-1, ABC-DLBCL, 72 hours incubation
Procedure: as §1

TMD8* (wt btk) = assay: Anti proliferative activity in haematological cancer cell lines (CellTiter Glo), TMD8; conditions: Homo sapiens, ABC-DLBCL, 72 hours incubation
Procedure: as §1

- IC50 (OCI-LY3 cells; Homo sapiens, OCI-LY3, ABC-DLBCL, 72 hours incubation, CellTiter Glo): 20 nM
- IC50 (DOHH-2): 20 nM
- IC50 (OCI-LY10): 10 nM
- IC50 (CCRF-CEM; Homo sapiens, CCRF-CEM, T-cell acute lymphoblastic leukemia, 72 hours incubation, CellTiter Glo): 280 nM
- IC50 (CUTLL-1; CUTLL1, CUTLL-1, T-cell acute lymphoblastic leukemia, 72 hours incubation, CellTiter Glo): 50 nM
- IC50 (Pfeiffer): 870 nM
- IC50 (H929; Homo sapiens, NCI-H929, H929, Multiple myeloma, 72 hours incubation, CellTiter Glo): 50 nM
- IC50 (HBL-1): 350 nM
- IC50 (TMD8* (wt btk)): 10 nM
Compound: C=CC(=O)N1CCN(C(=O)NC2(C#Cc3ccc(Cl)c(Cl)c3)CC2)CC1 [Cpd 23]
- anti-proliferative activity (in words) (OCI-LY3 cells; OCI-LY3 (ABC-DLBCL), activating mutation in CARD11): potent anti-proliferative activity
- anti-proliferative activity (in words) (CCRF-CEM; CCRF-CEM (T-cell acute lymphoblastic leukemia)): potent anti-proliferative activity
- anti-proliferative activity (in words) (CUTLL-1; CUTLL-1 (T-cell acute lymphoblastic leukemia)): potent anti-proliferative activity
- anti-proliferative activity (in words) (H929; H929 (multiple myeloma)): potent anti-proliferative activity
